# According to patent US8586307B2, “Methods for diagnosing epigenetic, transgenerational effects of environmental toxicants on mammalian germ-lines and treating associated diseases” (priority 2005, dated 2013):
# Where “and” joins values, the source holds several entries; their conditions need not be identical. Identical values can stand only once.
# Legend:
# [1] = tested on: DNA isolated from P6 testis or epididymal sperm; assay: Methylation sensitive restriction enzyme PCR (MSRE-PCR) DNA methylation analysis; format: in vivo, rat
# Experimental: DNA Methylation Assays: The methylation status of DNA, isolated from control and endocrine disruptor treated P6 testis, or epididymal sperm, used a combination of methylation sensitive restriction enzymes, and a PCR approach, previously described. Briefly, isolated genomic DNA was incubated and digested with RsaI, with either methylation sensitive (HpaII), or insensitive (MspI) restriction enzymes, followed by PCR, with 10 primer sets designed to amplify methylation sites. PCR products were electrophoretically separated, and visualized by Sybr green staining (Molecular Probes, Eugene, Oreg.), and effects of endocrine disruptors, were determined by the presence or absence of specific bands. The PCR products of interest were isolated, cloned and sequenced to determine chromosomal location by BLAST Genbank analysis. P6 testis analysis was repeated using 4 animals from different litters.
# DNA methylation assay: The methylation state of the DNA isolated from CDF control and vinclozolin generation epididymal sperm was determined using a combination of methylation sensitive restriction enzymes and PCR procedures (MSRE-PCR) described above in Example I. Briefly, genomic DNA was isolated from sperm samples using the DNeasy Tissue Kit (Quiagen, Valencia, Calif.). Two micrograms each of control and vinclozolin generation sperm DNA were separately digested with RsaI and either methylation-sensitive enzyme HpaII or insensitive MspI enzymes, followed by PCR with specific primer sets (Table 1). PCR products were electrophoretically separated on polyacrylamide gels and visualized by ethidium bromide staining. The PCR products (i.e. bands) that were reproducibly absent or present between control and vinclozolin generation sperm DNA were excised from stained gels, re-amplified with the same PCR primer set, and then cloned and sequenced. The DNA sequence and chromosomal location were determined using the NCBI Rat genomic databank BLAST system.
# Genomic DNA and Methylation Sensitive Restriction Enzyme PCR: Genomic DNA was isolated from the different control and vinclozolin F1-F3 generation epididymal sperm samples. A total of 1 μg of genomic DNA was digested using methylation-sensitive HpaII or AciI enzymes (37° C., 6-12 hr). The digested DNA was precipitated and dissolved in 30 μl of dH2O. Then, 3 μl aliquots were analyzed by PCR in 30 μl reactions with specific primers (Table 1), subjected to 25 cycles, and the PCR products electrophoretically separated on 1.5% agarose. The differences between the control and vinclozolin F1-F3 generation sperm samples were determined for selected genes found to have high optimal digestion capacity.
# [2] = tested on: sperm DNA; assay: Bisulfite sequencing of sperm DNA; format: in vivo, rat
# Experimental: Bisulfite Sequencing: Genomic DNA was isolated from F1 and F4 sperm samples using the DNeasy Tissue Kit (Qiagen, Valencia, Calif.) and digested with Rsa I. Genomic DNA was then treated with sodium bisulfite, following methods previously established. Briefly, 5 μg of digested DNA was denatured in NaOH, then treated with 4.0 M, pH 5.0 sodium metabisulfite for 16 hours at 55° C. Following desalting, DNA was desulfonated with NaOH, neutralized and precipitated with ammonium acetate and ethanol. DNA samples were resuspended in 30 μL, of 1 mM Tris buffer, pH 8.0. Sequence specific primers were generated to amplify the region of interest. PCR products were cloned into pGemT Easy vector (Promega Corporation) and sequenced. Approximately 35 clones from each PCR product were sequenced for analysis of methylation state of the CpG sites. Confirming altered methylation states involved comparisons of the sequence following the bisulfite treatment. The primers for the lysophospholipase PCR bisulfite analysis were 5′GGTATATATAGAGGAAGGTAGGTA GG3′ (SEQ ID NO:1) and 5′TAAAAACCTCCAAAAAACAAACAC T3′ (SEQ ID NO:2).
# Bisulfite sequencing: Bisulfite sequencing was used to characterize the DNA methylation patterns and changes. Genomic DNA was isolated from control and vinclozolin F2 and F3 generation epididymal sperm using the DNeasy Tissue Kit. Genomic DNA (10 μg) was digested with RsaI then treated with bisulfite as described above for Example I. After purification, the bisulfite converted DNA was used as a template for PCR. The bisulfite primers for each candidate were designed using MethPrimer (www.urogene.org/methprimer) system (Li and Dahiya, 2002) and are listed in Table 2. The sequence specific primers were generated to amplify the CpG region of interest to characterize the methylation pattern. PCR conditions for amplification were as follows: 30 cycles followed by another 30 cycles with nested primers (30 s at 95° C., 45 s at 50° C., and 50 s at 72° C.) and then 5 min at 72° C. with modified 1× buffer [10×: 166 mM (NH4)2.SO4; 670 mM Tris pH 8.8; 67 mM MgCl2; 100 mM β-mercaptoethanol]. PCR products were cloned into pGEM-T easy vector (Promega) and sequenced using Big-Dye Terminator (Applied BioSystems). Approximately 50 different clones from each PCR product were sequenced to characterize the methylation state of the CpG sites identified. A mixture of a minimum of 3 different F2 or F3 generation control and vinclozolin animals were used to generate approximately 50 clones per candidate analyzed. Statistical differences between methylation states were determined with a Fisher's Exact Test.
# [3] = tested on: vinclozolin generation animals; details: rat, in vivo
# From the text: A number of the genes associated with the methylation changes identified have a relationship with various disease states, Table 3. […] Therefore, alterations in the epigenetic (DNA methylation) and/or expression of these genes is associated with a number of disease states. In addition to these correlations to previous literature, the vinclozolin generation animals develop a variety of disease states. Vinclozolin (F1-F4) generation animals between 6-12 months of age develop a variety of disease states or abnormalities, Table 4 [153]. Therefore, the vinclozolin generational animals used develop a variety of diseases, and have the altered epigenetic programming of the male germ-line. Combined observations indicate that the epigenetic alterations in the germ-line DNA and associated genes identified in this Example, are associated with a number of disease states, Tables 3 and 4.
# [4] = F2/F3 sperm DNA, one of 5 potential CpG sites
# [5] = F2/F3 sperm DNA, one of 6 potential CpG sites
smiles,measurement,setting,value
C=CC1(C)OC(=O)N(c2cc(Cl)cc(Cl)c2)C1=O (stereo not shown) [vinclozolin],"gene specific MSRE-PCR products for candidates #1, #14, #17/18, #27/28 and #33","[1]; F1, F2 and F3 generation sperm DNA","PCR products were observed in all the vinclozolin generation sperm DNA samples, but not in the controls"
same,individual candidate DNA sequences with potential altered methylation sites,[1]; F3 generation sperm DNA,25
same,candidates with potential altered DNA methylation between control and vinclozolin sperm samples,"[1]; F3 generation sperm, Fisher rats",34
same,different PCR products with apparent altered DNA methylation patterns,"[1]; P6 testis, F1 males, Fisher rats, n=4",Approximately 25
same,animals with altered clone 17 (cytokine-inducible SH2 STAT-like protein gene) methylation in epididymal sperm,[1]; out of 5 F3 animals,2 animals
same,animals with altered clone 17 (cytokine-inducible SH2 STAT-like protein gene) methylation in epididymal sperm,[1]; out of 8 F2 animals,4 animals
same,treated sperm DNA samples with bisulfite altered sequence of the lysophospholipase gene,[2]; CpG island of lysophospholipase gene,approximately 25%
same,"methylation differences, Candidate #7 (Ankrd28/Galntl2)",[2]; F2/F3 sperm DNA,did not have any detectable differences
same,"methylation differences, Candidate #21, 32 (LOC503205/NCAM1)",[2]; F2/F3 sperm DNA,no differences in methylation
same,"methylation differences, Candidate #23 (LOC503150/snRP1c)",[2]; F2/F3 sperm DNA,no differences in methylation
same,"methylation differences, Candidate #25 (Mup4/MUP)",[2]; F2/F3 sperm DNA,no differences in methylation
same,"CpG hypermethylated to, Candidate #29 (Runx1/Awa1p)","[2]; F2/F3 sperm DNA, 1 of 6 potential CpG sites",48%
same,"CpG hypermethylated to, Candidate #14, 15 (Lrrn6a)","[2]; F2/F3 sperm DNA, 2 of 4 potential CpG",27%
same,"CpG hypermethylated to, Candidate #26 (Acaca)","[2]; F2/F3 sperm DNA, 2 of 5 potential CpG sites",50% and 28%
same,"CpG hypermethylated to, Candidate #33 (Six3/Six2)","[2]; F2/F3 sperm DNA, 2 of 6 potential CpG sites",31% and 57%
same,"CpG hypermethylated to, Candidate #27, 28 (zinc finger protein 212)","[2]; F2/F3 sperm DNA, 2 of 8 potential CpG sites",45% and 48%
same,"CpG hypermethylated to, Candidate #5, 6, 9 (FLJ22405 protein)","[2]; F2/F3 sperm DNA, 2 of 9 potential CpG",50% and 35%
same,"CpG hypermethylated to, Candidate #17, 18 (nicastrin/Copa)","[2]; F2/F3 sperm DNA, 2 of 20 potential CpG sites",55% and 30%
same,"CpG hypermethylated to, Candidate #13 (Nfix)","[2]; F2/F3 sperm DNA, 4 of 17 potential CpG sites",50-60%
same,"methylation differences, Candidate #4, 19 (Cacna1e)","[2]; F2/F3 sperm DNA, 6 potential CpG",did not have any detectable differences in methylation
same,"CpG hypermethylated to, Candidate #31 (Waspip/LOC499811)","[2]; F2/F3 sperm DNA, one of 4 potential CpG sites",42%
same,"CpG hypermethylated to, Candidate #8 (liprin-α1/Fadd)",[2]; [4],65%
same,"CpG hypermethylated to, Candidate #22 (tgolgin-1)",[2]; [4],67%
same,"CpG hypermethylated to, Candidate #12 (similar to importin 7)",[2]; [5],51%
same,"CpG hypermethylated to, Candidate #16 (optineurin)",[2]; [5],79%
same,"H19 methylation (known imprinted gene, control)",[2]; control vs vinclozolin F2/F3 sperm DNA,No change
same,candidate DNA sequences confirmed to have specific hypermethylation,"[2]; of the 25 candidates, F2/F3 sperm DNA",15
same,"methylation change, Candidate #34 (RAB12)",[2]; partial region only,no change in methylation
same,"Prevalence, Immune Abnormalities",[3],27%
same,"Prevalence, Kidney Disease",[3],40%
same,"Prevalence, Prostate Disease",[3],50%
same,"Prevalence, Testis Defect",[3],30%
same,"Prevalence, Tumor Development (e.g. breast)",[3],17%
same,frequency at which generation animals develop disease states,[3],~85%
